Laboratory results published in US20120301468A1, “ANTI-MN ANTIBODIES AND METHODS OF USING SAME” (BAYER HEALTHCARE LLC, priority 2005, published 2012).

Key:
[1] = tested on: Colo-205 CRC xenograft; assay: Colo-205 subcutaneous xenograft model
Excerpt: The in vivo anti-tumor effect of 3ee9/MMAE was examined in 6 different human xenograft tumor models. These models were established through subcutaneous implantation of human tumor cells into female athymic NCr (nu/nu) mice (Taconic, N.Y.). The human tumor xenograft models evaluated included the MaTu human mammary carcinoma model, the HT-29 and Colo-205 human colo-rectal carcinoma (CRC) models, PC3MM2 prostate carcinoma model, the HCT-15 multi-drug resistant (P-gp) CRC model, and the MiaPaCa2 human pancreatic model. PBS was used as a vehicle, and dosing solutions were prepared fresh daily. The dosing volume was 0.1 mL/10 g (10 mL/kg).
The length and width of each tumor were measured using an electronic caliper 2-3 times per week, and tumor weights (mg) were calculated based on the formula of [length (mm)×width (mm)^2]/2. All data, including daily observations, obtained throughout the course of the study were documented in Anti-tumor Data Acquisition System (ADAS). […] Tumor growth inhibition (TGI) was calculated as (1-T/C)×100, where T=final tumor weights from a treated group after the last dose, and C=final tumor weights from the control group after the last dose. In addition, anti-tumor efficacy was measured as the incidence of responses (or responders or regressions) defined as tumors with ≦50% of their initial size. A minimum duration of 7 days is required for a response to be considered durable.
The anti-tumor activity of 3ee9/MMAE was next evaluated against human prostate (PC-3 mm2) and CRC (Colo-205) tumor xenografts. Female NCr nu/nu mice were implanted subcutaneously (s.c.) either with 5×10^6 PC3 mm2 or Colo-205 cells. Treatment was initiated when tumors were of an average size of approximately 125-150 mg. The general health of mice was monitored and recorded daily. Tumor dimensions and body weights were recorded twice a week starting with the first day of treatment.
In the PC3 mm2 and Colo-205 studies, 3ee9/MMAE was administered intravenously (i.v.) once every 4th day for a total of 3 injections (Q4Dx3) at doses of 1, 3, 10 and 30 mg/kg and 1.25, 2.5, 5 and 10 mg/kg, respectively.
The feasibility of using 3ee9/MMAE in conjunction with other cancer chemotherapeutic agents was investigated. Xeloda® is used as first line treatment of patients with metastatic colorectal carcinoma. The activity and tolerability of combined therapy using 3ee9/MMAE and Xeloda® was evaluated. 3ee9/MMAE was administered i.v. on a Q4Dx3 schedule and at dose levels of 1.25, 2.5 and 10 mg/kg. Xeloda® was administered orally once daily for 9 days at dose levels of 250 and 500 mg/kg.

[2] = tested on: MN-negative MIAPaca2 cells; assay: In vitro cytotoxicity, MIAPaca2
[3] = tested on: mitochondria-associated CA5; assay: Binding to CA5
[4] = In vivo distribution; set-up: species or system mice; settings: Table 4 profile
Excerpt: The Maestro™ in-vivo imaging system (CRI, Woburn, Mass.) with multi-spectral acquisition and analysis is designed to eliminate auto-fluorescence background. Mabs 3ee9 of BAY 79-4620, M75 (mouse monoclonal recognizing MN) and control human IgG, were conjugated with Alexa Fluor 750 (Invitrogen Cat# A20011) according to manufacturer's instructions. The ratio of Protein/AF750 (mol/mol) was 1/5.9 for 3ee9, 8.9 for human IgG, and 6.0 for M75.
Twelve days before the injection of each fluorescence-labeled antibody, Harlan Balb/C nudes were implanted with MIAPaCa-2 (low MN-expressing; 7.5×10^6 cells in 50% Matrigel) subcutaneously in the right flank, and huMN-MIAPaCa2 (MN transfected stable cell line; 5×10^6 cells in 50% Matrigel) subcutaneously in the left flank. 4 μg of conjugated antibody was injected on Day 0 (12 days post implant) to each animal. Imaging was done on Day 4, Day 5 and Day 10. Data were collected using animals that were anaesthetized (100 mg/kg ketamine/10 mg/kg xylazine, i.p.), and placed inside the imaging system. Multi-spectral image cubes (series of images) were acquired with images spaced every 10 nm throughout the spectral range of 680 to 950 nm, which covered the Near Infrared (NIR) range.
Each image was exposed for 5 seconds. False-colored images were synthesized from the spectral cube using Maestro software and scaled to visible brightness using ImagePro Plus 6.0. […]

[5] = molecular target: MN (Homo sapiens, UniProt Q16790); assay: Immunoprecipitation of biotinylated cell surface proteins; format: binding; set-up: incubated with cell lysates of MN+ (Pc3 mm2) and MN− (DLD-1) cell lines that had been selectively labeled with biotin; endogenous in cells; host or cells: PC-3 mm2 (MN+); DLD-1 as the MN- control; settings: Table 4 profile
Method: To further explore specificity, various candidate antibodies including the antibody portion of 3ee9/MMAE (3ee9) and the reference antibody G250 were incubated with cell lysates of MN+ (Pc3 mm2) and MN− (DLD-1) cell lines that had been selectively labeled with biotin. Complexes between the antibodies and cellular proteins were immuno-precipitated and the co-precipitated antigens visualized using immunoblots developed with enzyme-linked streptavidin.

[6] = tested on: low MN-expressing MIAPaCa2 pancreatic xenograft; assay: MIAPaCa2 xenograft model; format: in vivo, mice
Method: To better understand the relationship between MN expression and antitumor efficacy, xenograft efficacy studies were conducted using a low MN-expressing pancreatic model, MIAPaCa2 and high MN-expressing huMN-MIAPaCa2 model. This latter line was derived by engineering the MIAPaCa2 line to stably express MN. […] 3ee9/MMAE dosed at 10 mg/kg only produced 50% TGI.

[7] = Colo-205, 1.25 mg/kg/inj Q4D × 3 IV
[8] = Colo-205, 2.5 mg/kg/inj Q4D × 3 IV
[9] = Colo-205, 10 mg/kg/inj Q4D × 3 IV

Substance: 3ee9/MMAE: human anti-MN IgG1 antibody 3ee9 conjugated to Monomethylauristatin E (MMAE)
- % Inhibition (T/C) (d 17) [1, 7]: 30.6%
- % Regressions [1, 7]: 0%
- % Weight Loss (d 17) [1, 7]: 0.5%
- TGI ([1]; Colo-205, 2.5 mg/kg i.v. Q4Dx3, end of dosing): > 70%
- % Inhibition (T/C) (d 17) [1, 8]: 73%
- % Regressions [1, 8]: 0%
- % Weight Loss (d 17) [1, 8]: 0.1%
- responses (regressions) ([1]; Colo-205, 5 mg/kg Q4Dx3): 40%
- responses (regressions) ([1]; Colo-205, 10 mg/kg Q4Dx3): 80%
- % Inhibition (T/C) (d 17) [1, 9]: 96.2%
- % Regressions [1, 9]: 80%
- % Weight Loss (d 17) [1, 9]: 0.9%
- TGI ([1]; Colo-205, 5 and 10 mg/kg i.v. Q4Dx3, end of dosing): > 90%
- TGI ([1]; Colo-205, alone 1.25 mg/kg i.v. Q4Dx3): 31%
- TGI ([1]; Colo-205, alone 2.5 mg/kg i.v. Q4Dx3): 73%
- response rate ([1]; Colo-205, alone 10 mg/kg): 80%
- TGI ([1]; Colo-205, alone 10 mg/kg i.v. Q4Dx3): 96%
- anti-tumor effect ([1]; Colo-205, lowest dose, 1 mg/kg): relatively ineffective
- anti-tumor effects ([1]; Colo-205 human colo-rectal cancer xenograft model): anti-tumor effects were seen
- cytotoxicity ([2]; MIAPaca2 (MN−)): not to MN-negative MIAPaca2 cells
- killing of MN-negative cells ([2]; doses as high as 1 uM): Less than 10%
- EC50 ([2]; read-out: Cytotoxicity: MN− (ec50), MN− cells): > 1000 nM
- binding to CA5 [3]: Binding to mitochondria-associated CA5 was observed
- In vivo distribution [4]: normal
- Immunoprecipitation [5]: specific
- effect in inhibiting growth [6]: minimal effect
